One may read the IC50 as the point on the concentration scale where inhibition reaches its midpoint.

This test deals with T1, human recombinant HDAC6 (Homo sapiens, UniProt Q9UBN7).
T1 construct: purchased Calbiochem 382180
T1 sequence (Q9UBN7 1-1215): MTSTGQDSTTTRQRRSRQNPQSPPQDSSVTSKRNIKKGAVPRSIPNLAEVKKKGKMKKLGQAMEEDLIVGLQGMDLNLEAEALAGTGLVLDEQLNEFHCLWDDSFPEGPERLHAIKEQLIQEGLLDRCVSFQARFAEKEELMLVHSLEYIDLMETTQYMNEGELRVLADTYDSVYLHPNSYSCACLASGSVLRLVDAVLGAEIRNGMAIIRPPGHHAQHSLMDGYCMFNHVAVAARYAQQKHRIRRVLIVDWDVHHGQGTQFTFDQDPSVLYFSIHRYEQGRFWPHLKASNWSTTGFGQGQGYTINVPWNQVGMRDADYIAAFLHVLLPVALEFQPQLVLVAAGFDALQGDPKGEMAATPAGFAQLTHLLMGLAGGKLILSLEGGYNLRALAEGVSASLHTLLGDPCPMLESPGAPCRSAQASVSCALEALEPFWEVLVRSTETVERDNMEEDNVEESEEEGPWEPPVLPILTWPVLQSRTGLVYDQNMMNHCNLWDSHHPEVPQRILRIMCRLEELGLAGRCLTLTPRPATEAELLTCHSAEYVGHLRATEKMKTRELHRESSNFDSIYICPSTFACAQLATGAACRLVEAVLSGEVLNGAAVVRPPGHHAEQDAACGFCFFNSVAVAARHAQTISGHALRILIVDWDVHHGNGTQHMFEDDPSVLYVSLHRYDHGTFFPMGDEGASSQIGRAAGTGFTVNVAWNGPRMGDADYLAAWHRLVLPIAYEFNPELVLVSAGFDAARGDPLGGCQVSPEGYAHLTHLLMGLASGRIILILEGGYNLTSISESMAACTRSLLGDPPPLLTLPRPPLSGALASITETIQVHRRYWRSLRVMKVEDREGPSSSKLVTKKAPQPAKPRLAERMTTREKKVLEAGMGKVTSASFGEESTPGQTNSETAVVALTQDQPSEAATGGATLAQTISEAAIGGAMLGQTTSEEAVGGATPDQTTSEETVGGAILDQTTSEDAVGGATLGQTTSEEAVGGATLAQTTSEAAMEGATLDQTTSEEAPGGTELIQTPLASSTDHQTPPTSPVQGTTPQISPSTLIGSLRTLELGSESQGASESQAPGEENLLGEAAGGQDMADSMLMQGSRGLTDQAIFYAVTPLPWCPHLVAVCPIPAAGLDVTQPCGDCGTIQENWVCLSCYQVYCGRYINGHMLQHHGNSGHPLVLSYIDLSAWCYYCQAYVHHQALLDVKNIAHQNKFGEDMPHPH
The experiment in a line: HDAC6 enzyme activity inhibition assay (HDAC Fluorimetric Drug Discovery Kit). It counts as biochemical. Conditions: for HDAC6 selectivity (fold): HDAC1 vs HDAC6; for IC50: same protocol as the HDAC1 enzyme activity test. The essentials: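 5-fold compound dilutions + 0.3 μg enzyme + 10 μM Fluor de Lys-SIRT1 substrate, 60 min, 30° C; Developer II 30 min; fluorescence Ex 360/Em 460; IC50 by curve fit.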

Turning to `Cc1cccc(N(Cc2ccc(-c3nnc(C(F)F)o3)cc2)S(=O)(=O)C2CCN(C3CC(O)C3)CC2)c1` (centres unmarked) [Compound 11792, N-(4-(5-(difluoromethyl)-1,3,4-oxadiazol-2-yl)benzyl)-1-(3-hydroxycyclobutyl)-N-(m-tolyl)piperidine-4-sulfonamide], the “HDAC6 selectivity (fold)” value is 1218 fold and the IC50 worked out at 82.1 nM.

Consider `CC(C)c1nc2ccc(N(Cc3ccc(-c4nnc(C(F)F)o4)cc3)S(C)(=O)=O)cc2s1` [Compound 11744, N-(4-(5-(difluoromethyl)-1,3,4-oxadiazol-2-yl)benzyl)-N-(2-isopropylbenzo[d]thiazol-6-yl)methanesulfonamide], for which the “HDAC6 selectivity (fold)” value came out at 188 fold and the IC50 turned out to be 531 nM.

Consider `O=S(=O)(CCN1CC[C@H](F)C1)N(Cc1ccc(-c2nnc(C(F)F)o2)cc1)c1ccccc1` [Compound 11795, (S)—N-(4-(5-(difluoromethyl)-1,3,4-oxadiazol-2-yl)benzyl)-2-(3-fluoropyrrolidin-1-yl)-N-phenylethane-1-sulfonamide], for which the “HDAC6 selectivity (fold)” value came out at 1466 fold and the 50% inhibitory concentration (IC50) was found to be 68.2 nM.

With `CS(=O)(=O)N(Cc1ccc(-c2nnc(C(F)F)o2)cn1)c1cccc(C(F)(F)F)c1` [Compound 11324, N-((5-(5-(difluoromethyl)-1,3,4-oxadiazol-2-yl)pyridin-2-yl)methyl)-N-(3-(trifluoromethyl)phenyl)methanesulfonamide], the “HDAC6 selectivity (fold)” value was determined as 4762 fold and the concentration for half-maximal inhibition (IC50) turned out to be 21 nM.

As to `CS(=O)(=O)N(Cc1ccc(-c2nnc(C(F)F)o2)cc1F)c1cccc(F)c1` [Compound 11182, N-(4-(5-(difluoromethyl)-1,3,4-oxadiazol-2-yl)-2-fluorobenzyl)-N-(3-fluorophenyl)methanesulfonamide], the “HDAC6 selectivity (fold)” value is listed as 5882 fold and the IC50 stood at 17 nM.

For `O=S(=O)(CCN1CC[C@@H](O)C1)N(Cc1ccc(-c2nnc(C(F)F)o2)cc1)c1ccccc1` [Compound 11801, (R)—N-(4-(5-(difluoromethyl)-1,3,4-oxadiazol-2-yl)benzyl)-2-(3-hydroxypyrrolidin-1-yl)-N-phenylethane-1-sulfonamide], the “HDAC6 selectivity (fold)” value amounted to 2941 fold and the IC50 was 34 nM.

For the compound `Cc1ccc(N(Cc2ccc(-c3nnc(C(F)(F)F)o3)cc2F)S(C)(=O)=O)cc1` [Compound 11282, N-(2-fluoro-4-(5-(trifluoromethyl)-1,3,4-oxadiazol-2-yl)benzyl)-N-(p-tolyl)methanesulfonamide], the “HDAC6 selectivity (fold)” value was 781 fold and the IC50 stood at 128 nM.

As for `CC(C)N1Cc2ccc(N(Cc3ccc(-c4nnc(C(F)F)o4)cn3)S(C)(=O)=O)cc2C1` [Compound 11734, N-((5-(5-(difluoromethyl)-1,3,4-oxadiazol-2-yl)pyridin-2-yl)methyl)-N-(2-isopropylisoindolin-5-yl)methanesulfonamide], the “HDAC6 selectivity (fold)” value was determined as 132 fold and the IC50 came out at 755 nM.

In the case of `O=S(=O)(CCN1Cc2ccccc2C1)N(Cc1ccc(-c2nnc(C(F)F)o2)cc1)c1ccccc1` [Compound 11756, N-(4-(5-(difluoromethyl)-1,3,4-oxadiazol-2-yl)benzyl)-2-(isoindolin-2-yl)-N-phenylethane-1-sulfonamide], the “HDAC6 selectivity (fold)” value is 264 fold and the IC50 came to 378 nM.

For the compound `CS(=O)(=O)N(Cc1ccccn1)Cc1ccc(-c2nnc(C(F)(F)F)o2)cc1F` [Compound 11044, N-(2-fluoro-4-(5-(trifluoromethyl)-1,3,4-oxadiazol-2-yl)benzyl)-N-(pyridin-2-ylmethyl)methanesulfonamide], the “HDAC6 selectivity (fold)” value was determined as 302 fold and the IC50 was 331 nM.

`CN1CCN(CCCS(=O)(=O)N(Cc2ccc(-c3nnc(C(F)F)o3)cc2F)c2ccccc2)CC1` [Compound 11589, N-(4-(5-(difluoromethyl)-1,3,4-oxadiazol-2-yl)-2-fluorobenzyl)-3-(4-methylpiperazin-1-yl)-N-phenylpropane-1-sulfonamide]: the “HDAC6 selectivity (fold)” value was 2326 fold and the IC50 came to 43 nM.

On to `O=S(=O)(CCN1CCC[C@@H]1CO)N(Cc1ccc(-c2nnc(C(F)F)o2)cc1)c1ccccc1` [Compound 11803, (R)—N-(4-(5-(difluoromethyl)-1,3,4-oxadiazol-2-yl)benzyl)-2-(2-(hydroxymethyl)pyrrolidin-1-yl)-N-phenylethane-1-sulfonamide], for which the “HDAC6 selectivity (fold)” value is 4587 fold and the IC50 was 21.8 nM.

For the compound `CS(=O)(=O)N(Cc1ccc(-c2nnc(C(F)F)o2)cc1F)c1ccc(F)cc1` [Compound 11276, N-(4-(5-(difluoromethyl)-1,3,4-oxadiazol-2-yl)-2-fluorobenzyl)-N-(4-fluorophenyl)methanesulfonamide], the “HDAC6 selectivity (fold)” value amounted to 4000 fold and the concentration for half-maximal inhibition (IC50) was 25 nM.

With `CS(=O)(=O)N(Cc1ccc(-c2nnc(C(F)F)o2)cc1F)c1cccnc1` [Compound 11120, N-(4-(5-(difluoromethyl)-1,3,4-oxadiazol-2-yl)-2-fluorobenzyl)-N-(pyridin-3-yl)methanesulfonamide], the “HDAC6 selectivity (fold)” value is 2631 fold and the IC50 turned out to be 38 nM.

On to `O=S(=O)(CCN1CCOCC1)N(Cc1ccc(-c2nnc(C(F)F)o2)cc1)c1ccccc1` [Compound 11655, N-(4-(5-(difluoromethyl)-1,3,4-oxadiazol-2-yl)benzyl)-2-morpholino-N-phenylethanesulfonamide], for which the “HDAC6 selectivity (fold)” value turned out to be 1724 fold and the 50% inhibitory concentration (IC50) turned out to be 58 nM.

As for `CS(=O)(=O)N(Cc1ccc(-c2nnc(C(F)(F)F)o2)cc1F)c1cccc(C(F)(F)F)c1` [Compound 11175, N-(2-fluoro-4-(5-(trifluoromethyl)-1,3,4-oxadiazol-2-yl)benzyl)-N-(3-(trifluoromethyl)phenyl)methanesulfonamide], the “HDAC6 selectivity (fold)” value turned out to be 559 fold and the IC50 was determined as 179 nM.

For `O=S(=O)(CCN1CCC(Cc2ccccc2)CC1)N(Cc1ccc(-c2nnc(C(F)F)o2)cc1)c1ccccc1` [Compound 11762, 2-(4-benzylpiperidin-1-yl)-N-(4-(5-(difluoromethyl)-1,3,4-oxadiazol-2-yl)benzyl)-N-phenylethane-1-sulfonamide], the “HDAC6 selectivity (fold)” value was 100 fold and the IC50 came out at 1000 nM.

For the compound `O=S(=O)(CCN1CCCC(CO)C1)N(Cc1ccc(-c2nnc(C(F)F)o2)cc1)c1ccccc1` (centres unmarked) [Compound 11811, N-(4-(5-(difluoromethyl)-1,3,4-oxadiazol-2-yl)benzyl)-2-(3-(hydroxymethyl)piperidin-1-yl)-N-phenylethane-1-sulfonamide], the “HDAC6 selectivity (fold)” value was 2358 fold and the IC50 worked out at 42.4 nM.

In the case of `COc1ccccc1C1CCN(CCS(=O)(=O)N(Cc2ccc(-c3nnc(C(F)F)o3)cc2)c2ccccc2)CC1` [Compound 11845, N-(4-(5-(difluoromethyl)-1,3,4-oxadiazol-2-yl)benzyl)-2-(4-(2-methoxyphenyl)piperidin-1-yl)-N-phenylethane-1-sulfonamide], the “HDAC6 selectivity (fold)” value stood at 103 fold and the IC50 came out at 973 nM.
